In US20240158446A1, “CYCLIC COMPOUND HAVING SELECTIVE INHIBITORY ACTION ON KRAS OVER HRAS AND NRAS” (CHUGAI SEIYAKU KABUSHIKI KAISHA, priority 2021, published 2024):
Read-outs that look alike come from different tables or passages of the source.

Experiments:
[1] = biological target: GDP-bound KRAS wild-type protein (Homo sapiens, UniProt P01116); assay: Binding to KRAS by surface plasmon resonance (SPR), Single Cycle Kinetics; settings: GDP-bound KRAS wild-type protein, read-out: KRAS KD
[2] = biological target: GDP-bound NRAS wild-type protein (Homo sapiens, UniProt P01111); assay: Binding to NRAS by surface plasmon resonance (SPR), Single Cycle Kinetics; settings: for NRAS/KRAS (ratio of KD value with respect to GDP-bound NRAS wild-type protein to KD value with respect to KRAS): SPR KD ratio NRAS/KRAS, class symbols; for NRAS/KRAS (ratio of KD value for NRAS to KD value for KRAS): GDP-bound NRAS wild-type protein vs GDP-bound KRAS wild-type protein
[3] = biological target: GDP-bound HRAS wild-type protein (Homo sapiens, UniProt P01112); assay: Binding to HRAS by surface plasmon resonance (SPR), Single Cycle Kinetics; settings: for HRAS/KRAS (ratio of KD value with respect to GDP-bound HRAS wild-type protein to KD value with respect to KRAS): SPR KD ratio HRAS/KRAS, class symbols; for HRAS/KRAS (ratio of KD value for HRAS to KD value for KRAS): GDP-bound HRAS wild-type protein vs GDP-bound KRAS wild-type protein
[4] = test system: human lung cancer strain NCI-H441;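 further: cell proliferation inhibition after four days measured by CellTiter-Glo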
[5] = SPR Single Cycle Kinetics, 1:1 binding model
[6] = SPR, Single Cycle Kinetics, 1:1 binding model

Sequence of GDP-bound HRAS wild-type protein (P01112 whole entry): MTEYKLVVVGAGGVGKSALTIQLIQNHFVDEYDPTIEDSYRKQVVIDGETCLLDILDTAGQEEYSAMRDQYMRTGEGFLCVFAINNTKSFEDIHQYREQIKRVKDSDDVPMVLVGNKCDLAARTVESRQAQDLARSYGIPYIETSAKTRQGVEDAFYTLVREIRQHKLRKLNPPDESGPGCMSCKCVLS
Sequence of GDP-bound KRAS wild-type protein (P01116 whole entry): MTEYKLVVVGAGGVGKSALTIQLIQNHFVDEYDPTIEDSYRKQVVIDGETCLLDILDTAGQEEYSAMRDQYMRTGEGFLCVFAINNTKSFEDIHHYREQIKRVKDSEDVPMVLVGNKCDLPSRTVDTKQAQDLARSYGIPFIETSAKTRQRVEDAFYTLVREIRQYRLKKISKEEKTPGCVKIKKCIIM
Sequence of GDP-bound NRAS wild-type protein (P01111 whole entry): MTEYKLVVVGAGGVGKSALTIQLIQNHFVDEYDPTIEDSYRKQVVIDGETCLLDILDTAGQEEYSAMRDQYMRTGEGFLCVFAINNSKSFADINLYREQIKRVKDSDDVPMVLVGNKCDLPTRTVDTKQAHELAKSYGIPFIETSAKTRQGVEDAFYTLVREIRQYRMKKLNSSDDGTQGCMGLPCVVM

| Compound | IC50 [4] [pM] | Kd ([1]; SPR, Single Cycle Kinetics) [pM] | Kd [1, 6] [pM] | NRAS/KRAS (ratio of KD value for NRAS to KD value for KRAS) ([2]; SPR) | HRAS/KRAS (ratio of KD value for HRAS to KD value for KRAS) ([3]; SPR) | NRAS/KRAS (ratio of KD value for NRAS to KD value for KRAS) ([2]; SPR, KD ratio class) | HRAS/KRAS (ratio of KD value for HRAS to KD value for KRAS) ([3]; SPR, KD ratio class) | also measured |
| --- | --- | --- | --- | --- | --- | --- | --- | --- |
| CCC(CC)[C@H]1C(=O)N(C)[C@H](C(=O)N(C)C)CC(=O)N(C)[C@@H](COC)C(=O)N[C@@H]([C@@H](C)CC)C(=O)N(C)CC(=O)N(C)[C@H]2C/C=C\CCN(C2=O)[C@@H](Cc2ccc(C(F)F)cc2)C(=O)N(C)CC(=O)N[C@@H](CCc2ccc(Cl)c(Cl)c2)C(=O)N2C[C@H](OC3CCCC3)C[C@H]2C(=O)NC2(CC(C)(C)C2)C(=O)N1C [PP2649] | 61000 | – | – | – | – | – | – | Kd [1, 5]: 400 pM; NRAS/KRAS (ratio of KD value with respect to GDP-bound NRAS wild-type protein to KD value with respect to KRAS) [2]: AA (a compound having 20 or more is denoted as AA); HRAS/KRAS (ratio of KD value with respect to GDP-bound HRAS wild-type protein to KD value with respect to KRAS) [3]: A (a compound having 10 or more and less than 20 is denoted as A) |
| CCO[C@@H]1C[C@H]2C(=O)NC3(CC(C)(C)C3)C(=O)N(C)[C@@H](C(CC)CC)C(=O)N(C)[C@H](C(=O)N(C)C)CC(=O)N(C)[C@@H](COC)C(=O)N[C@@H]([C@@H](C)CC)C(=O)N(C)CC(=O)N(C)[C@H]3C/C=C\CCN(C3=O)[C@@H](CC3CCC(F)(F)CC3)C(=O)N(C)CC(=O)N[C@@H](CCc3ccc(C(F)(F)F)c(OC)c3)C(=O)N2C1 [PP2438] | 41400 | 640 | – | A (a compound having 10 or more and less than 20 is denoted as A) | A (a compound having 10 or more and less than 20 is denoted as A) | – | – | – |
| CCCO[C@@H]1C[C@H]2C(=O)NC3(CC(C)(C)C3)C(=O)N(C)[C@@H](C3CCCC3)C(=O)N(C)[C@H](C(=O)N(C)C)CC(=O)N(C)[C@H]3CCCCc4ccc(cc4)C[C@@H](C(=O)N(C)CC(=O)N[C@@H](CCc4ccc(C(F)(F)F)c(OC)c4)C(=O)N2C1)N1CC/C=C\C[C@@H](C1=O)N(C)C(=O)CN(C)C(=O)[C@H]([C@@H](C)CC)NC3=O [PP3077] | – | 40 | – | A (a compound having 10 or more and less than 20 is denoted as A) | B (a compound having 3 or more and less than 10 is denoted as B) | – | – | ratio of the KD value with respect to GDP-bound NRAS wild-type protein to the KD value with respect to KRAS ([2]; SPR, KD(NRAS)/KD(KRAS)): A (a compound having 10 or more and less than 20 is denoted as A); ratio of the KD value with respect to GDP-bound HRAS wild-type protein to the KD value with respect to KRAS ([3]; SPR, KD(HRAS)/KD(KRAS)): B (a compound having 3 or more and less than 10 is denoted as B); IC50 ([4]; read-out: NCI-H441 cell proliferation inhibitory activity, 50% proliferation inhibitory concentration (IC50 value), NCI-H441, four days, CellTiter-Glo): 800 pM |
| CCO[C@@H]1C[C@H]2C(=O)NC3(CCC3)C(=O)N(C)[C@@H](C(CC)CC)C(=O)N(C)[C@H](C(=O)N(C)C)CC(=O)N(C)[C@@H](CC3CCCC3)C(=O)N[C@@H]([C@@H](C)CC)C(=O)N(C)CC(=O)N(C)[C@H]3C/C=C\CCN(C3=O)[C@@H](CC3CCCCC3)C(=O)N(C)CC(=O)N[C@@H](CCc3cc(F)c(C(F)(F)F)c(F)c3)C(=O)N2C1 [PP1430] | 70400 | – | 850 | – | – | A (a compound having 10 or more and less than 20 is denoted as A) | A (a compound having 10 or more and less than 20 is denoted as A) | – |
| CCO[C@@H]1C[C@H]2C(=O)NC3(CCC3)C(=O)N(C)[C@@H](C(CC)CC)C(=O)N(C)[C@H](C(=O)N(C)C)CC(=O)N(C)[C@@H](CC(C)C)C(=O)N[C@@H]([C@@H](C)CC)C(=O)N(C)CC(=O)N(C)[C@H]3C/C=C\CCN(C3=O)[C@@H](Cc3ccc(C(F)(F)F)cc3)C(=O)N(C)CC(=O)N[C@@H](CCc3ccc4sccc4c3)C(=O)N2C1 [PP1225] | 92500 | – | 1100 | – | – | AA (a compound having 20 or more is denoted as AA) | A (a compound having 10 or more and less than 20 is denoted as A) | – |
| CCOC[C@H]1C(=O)N[C@@H]([C@@H](C)CC)C(=O)N(C)CC(=O)N(C)[C@H]2C/C=C\CCN(C2=O)[C@@H](Cc2ccc(C(F)(F)F)cc2)C(=O)N(C)CC(=O)N[C@@H](CCc2cc(F)c(C(F)(F)F)c(F)c2)C(=O)N2C[C@H](OCC)C[C@H]2C(=O)NC2(CCC2)C(=O)N(C)[C@@H](C2CCCC2)C(=O)N(C)[C@H](C(=O)N(C)C)CC(=O)N1C [PP1266, (2S,8S,12R,14S,20S,23S,27S,30S,36S,38Z)-20-cyclopentyl-8-[2-[3,5-difluoro-4-(trifluoromethyl)phenyl]ethyl]-12-ethoxy-27-(ethoxymethyl)-N,N,4,19,22,26,32,35-octamethyl-30-[(1S)-1-methylpropyl]-3,6,9,15,18,21,25,28,31,34,42-undecaoxo-2-[[4-(trifluoromethyl)phenyl]methyl]spiro[1,4,7,10,16,19,22,26,29,32,35-undecazatricyclo[34.5.1.0^10,14]dotetracont-38-ene-17,1′-cyclobutane]-23-carboxamide] | 12200 | – | 45 | – | – | A (a compound having 10 or more and less than 20 is denoted as A) | A (a compound having 10 or more and less than 20 is denoted as A) | – |
| CCO[C@@H]1C[C@H]2C(=O)NC3(CCC3)C(=O)N(C)[C@@H](C3CCCC3)C(=O)N(C)[C@H](C(=O)N(C)C)CC(=O)N(C)[C@@H](Cc3cccc(C#N)c3)C(=O)N[C@@H]([C@@H](C)CC)C(=O)N(C)CC(=O)N(C)[C@H]3CCCCCN(C3=O)[C@@H](Cc3ccc(F)cc3)C(=O)N(C)CC(=O)N[C@@H](CCc3cc(F)c(C(F)(F)F)c(F)c3)C(=O)N2C1 [PP1156] | 33700 | 63 | – | B (a compound having 3 or more and less than 10 is denoted as B) | B (a compound having 3 or more and less than 10 is denoted as B) | – | – | – |
| CCCCCC[C@H]1C(=O)N[C@@H]([C@@H](C)CC)C(=O)N(C)CC(=O)N(C)[C@H]2C/C=C\CCN(C2=O)[C@@H](Cc2ccc(C(F)(F)F)cc2)C(=O)N(C)CC(=O)N[C@@H](CCc2ccc(Cl)c(Cl)c2)C(=O)N2C[C@H](OCC)C[C@H]2C(=O)NC2(CCC2)C(=O)N(C)[C@@H](C(CC)CC)C(=O)N(C)[C@H](C(=O)N(C)C)CC(=O)N1C [PP1218] | 67900 | – | 880 | – | – | AA (a compound having 20 or more is denoted as AA) | A (a compound having 10 or more and less than 20 is denoted as A) | – |

Second part, led by results:

| IC50 [4] [pM] | Kd ([1]; SPR, Single Cycle Kinetics) [pM] | Kd [1, 6] [pM] | Compound | NRAS/KRAS (ratio of KD value for NRAS to KD value for KRAS) ([2]; SPR) | HRAS/KRAS (ratio of KD value for HRAS to KD value for KRAS) ([3]; SPR) | NRAS/KRAS (ratio of KD value for NRAS to KD value for KRAS) ([2]; SPR, KD ratio class) | HRAS/KRAS (ratio of KD value for HRAS to KD value for KRAS) ([3]; SPR, KD ratio class) | also measured |
| --- | --- | --- | --- | --- | --- | --- | --- | --- |
| 10700 | – | – | CCO[C@@H]1C[C@H]2C(=O)NC3(CC(C)(C)C3)C(=O)N(C)[C@@H](CC(C)(C)C)C(=O)N(C)[C@H](C(=O)N(C)C)CC(=O)N(C)[C@@H](COC)C(=O)N[C@@H]([C@@H](C)CC)C(=O)N(C3CC3)CC(=O)N(C)[C@H]3C/C=C\CCN(C3=O)[C@@H](Cc3ccc(C(F)(F)F)cc3)C(=O)N(C)CC(=O)N[C@@H](CCc3cc(F)c(C(F)(F)F)c(F)c3)C(=O)N2C1 [PP2744] | – | – | – | – | Kd [1, 5]: 230 pM; NRAS/KRAS (ratio of KD value with respect to GDP-bound NRAS wild-type protein to KD value with respect to KRAS) [2]: A (a compound having 10 or more and less than 20 is denoted as A); HRAS/KRAS (ratio of KD value with respect to GDP-bound HRAS wild-type protein to KD value with respect to KRAS) [3]: A (a compound having 10 or more and less than 20 is denoted as A) |
| 7200 | – | 84 | CC[C@H](C)[C@@H]1NC(=O)[C@H](CC2CC2)N(C)C(=O)C[C@@H](C(=O)N(C)C)N(C)C(=O)[C@H](C2CCCC2)N(C)C(=O)C2(CCCC2)NC(=O)[C@@H]2CCCN2C(=O)[C@H](CCc2ccc(C(F)(F)F)c(Cl)c2)NC(=O)CN(C)C(=O)[C@H](Cc2ccc(C(F)(F)F)cc2)N2C[C@H](C)CC[C@@H](C2=O)N(C)C(=O)CN(C)C1=O [PP1346] | – | – | B (a compound having 3 or more and less than 10 is denoted as B) | B (a compound having 3 or more and less than 10 is denoted as B) | – |
| 2300 | – | 26 | CC[C@H](C)[C@@H]1NC(=O)[C@H](CC(C)C)N(C)C(=O)C[C@@H](C(=O)N(C)C)N(C)C(=O)[C@H](C2CCCC2)N(C)C(=O)C2(CC(C)(C)C2)NC(=O)[C@@H]2C[C@@H](F)CN2C(=O)[C@H](CCc2cc(F)c(C(F)(F)F)c(F)c2)NC(=O)CN(C)C(=O)[C@H](Cc2ccc(C(F)(F)F)cc2)N2CC/C=C\C[C@@H](C2=O)N(C)C(=O)CN(C)C1=O [PP1566] | – | – | A (a compound having 10 or more and less than 20 is denoted as A) | A (a compound having 10 or more and less than 20 is denoted as A) | – |
| 9400 | – | – | CCC[C@H]1C(=O)N[C@@H]([C@@H](C)CC)C(=O)N2C[C@@H](OC)C[C@H]2C(=O)N(C)[C@H]2C/C=C\CCN(C2=O)[C@@H](Cc2ccc(C)cc2)C(=O)N(C)CC(=O)N[C@@H](CCc2cc(F)c(C(F)(F)F)c(F)c2)C(=O)N2C[C@H](OCC)C[C@H]2C(=O)NC2(CC(C)(C)C2)C(=O)N(C)[C@@H](C2CCCC2)C(=O)N(C)[C@H](C(=O)N(C)C)CC(=O)N1C [PP2556] | – | – | – | – | Kd [1, 5]: 210 pM; NRAS/KRAS (ratio of KD value with respect to GDP-bound NRAS wild-type protein to KD value with respect to KRAS) [2]: A (a compound having 10 or more and less than 20 is denoted as A); HRAS/KRAS (ratio of KD value with respect to GDP-bound HRAS wild-type protein to KD value with respect to KRAS) [3]: B (a compound having 3 or more and less than 10 is denoted as B) |
| 2100 | 75 | – | CCCOC[C@H]1C(=O)N[C@@H]([C@@H](C)CC)C(=O)N(C2CC2)CC(=O)N(C)[C@H]2C/C=C\CCN(C2=O)[C@@H](Cc2ccc(C)cc2)C(=O)N(C)CC(=O)N[C@@H](CCc2ccc(C(F)(F)F)c(OC)c2)C(=O)N2C[C@@H](C)C[C@H]2C(=O)N(C)C2(CCC2)C(=O)N(C)[C@@H](C2CCCC2)C(=O)N(C)[C@H](C(=O)N(C)C)CC(=O)N1C [PP2367] | A (a compound having 10 or more and less than 20 is denoted as A) | B (a compound having 3 or more and less than 10 is denoted as B) | – | – | – |
